Patent US12435044B2, “Pyridazinone herbicides and pyridazinone intermediates used to prepare a herbicide” (FMC Corporation, priority 2018, dated 2025)

How the values were obtained:
Format in all cases: in vivo
[1] = system: wheat, winter (Triticum aestivum); assay: Test D pre-/postemergence controlled growth environment test
From the text: (§1) Seeds of plant species selected from blackgrass (Alopecurus myosuroides), galium (catchweed bedstraw, Galium aparine), kochia (Kochia scoparia), oilseed rape (Brassica napus), barley, spring (Hordeum vulgare), wheat, spring (Triticum aestivum), oat, wild (Avena fatua), barley, winter (Hordeum vulgare) and wheat, winter (Triticum aestivum) were planted into a silt loam soil and treated preemergence with test chemicals formulated in a non-phytotoxic solvent mixture which included a surfactant.
(§2) At the same time, plants selected from these crop and weed species and also bluegrass (annual bluegrass, Poa annua), canarygrass (littleseed canarygrass, Phalaris minor), chickweed (common chickweed, Stellaria media), bromegrass, downy (downy bromegrass, Bromus tectorum), field poppy (Papaver rhoeas), field violet (Viola arvensis), foxtail, green (Setaria viridis), deadnettle (henbit deadnettle, Lamium amplexicaule), ryegrass, Italian (Lolium multiflorum), lambsquarters (Chenopodium album), pigweed (Amaranthus retroflexus), chamomile (scentless chamomile, Matricaria inodora), Russian thistle (Salsola kali), speedwell (bird's-eye speedwell, Veronica persica), buckwheat, wild (Polygonum convolvulus), mustard, wild (Sinapis arvensis), radish, wild (Raphanus raphanistrum), windgrass (Apera spica-venti), geranium, cutleaf (Geranium dissectum) and Canada thistle (Cirsium arvense) were planted in pots containing Redi-Earth® planting medium (Scotts Company, 14111 Scottslawn Road, Marysville, Ohio 43041) comprising spaghnum peat moss, vermiculite, wetting agent and starter nutrients and treated with postemergence applications of the test chemicals formulated in the same manner. Plants ranged in height from 2 to 18 cm (1- to 4-leaf stage). Treated plants and controls were maintained in a controlled growth environment for 14 to 21 d after which time all species were compared to controls and visually evaluated. Plant response ratings, summarized in Table D, are based on a scale of 0 to 100 where 0 is no effect and 100 is complete control. A dash (-) response means no test result.

oat, wild (Avena fatua) = assay: as above
From the text: as §1, §2

[2] = system: barley, winter (Hordeum vulgare); assay: as above
From the text: as §1, §2

[3] = system: barley, spring (Hordeum vulgare); assay: as above
From the text: as §1, §2

[4] = system: oilseed rape (Brassica napus); assay: as above
From the text: as §1, §2

[5] = system: wheat, spring (Triticum aestivum); assay: as above
From the text: as §1, §2

[6] = system: galium (catchweed bedstraw, Galium aparine); assay: as above
From the text: as §1, §2

[7] = system: ryegrass, Italian (Lolium multiflorum); assay: Test A pre-/postemergence greenhouse test
From the text: (§3) Seeds of plant species selected from barnyardgrass (Echinochloa crus-galli), kochia (Kochia scoparia), ragweed (common ragweed, Ambrosia elatior), ryegrass, Italian (Lolium multiflorum), foxtail, giant (Setaria faberii), foxtail, green (Setaria viridis) and pigweed (Amaranthus retroflexus) were planted into a blend of loam soil and sand and treated preemergence with a directed soil spray using test chemicals formulated in a non-phytotoxic solvent mixture which included a surfactant.
(§4) At the same time, plants selected from these weed species and also wheat (Triticum aestivum), corn (Zea mays), blackgrass (Alopecurus myosuroides) and galium (catchweed bedstraw, Galium aparine) were planted in pots containing the same blend of loam soil and sand and treated with postemergence applications of test chemicals formulated in the same manner. Plants ranged in height from 2 to 10 cm and were in the one- to two-leaf stage for the postemergence treatment. Treated plants and untreated controls were maintained in a greenhouse for approximately 10 d, after which time all treated plants were compared to untreated controls and visually evaluated for injury. Plant response ratings, summarized in Table A, are based on a 0 to 100 scale where 0 is no effect and 100 is complete control. A dash (-) response means no test result.

kochia (Kochia scoparia) = assay: Test A pre-/postemergence greenhouse test
From the text: as §3, §4

[8] = system: ragweed (common ragweed, Ambrosia elatior); assay: Test A pre-/postemergence greenhouse test
From the text: as §3, §4

[9] = system: pigweed (Amaranthus retroflexus); assay: Test A pre-/postemergence greenhouse test
From the text: as §3, §4

[10] = system: barnyardgrass (Echinochloa crus-galli); assay: Test A pre-/postemergence greenhouse test
From the text: as §3, §4

Cc1ccc2ccc(C)c(-c3c(O)c(Cl)nn(C)c3=O)c2c1 [Cpd. No. 20, 6-chloro-4-(2,7-dimethyl-1-naphthalenyl)-5-hydroxy-2-methyl-3(2H)-pyridazinone]
Plant response rating, Wheat, Winter ([1]; Postemergence, 16 g ai/ha): 10 | Plant response rating, Wheat, Winter ([1]; Postemergence, 31 g ai/ha): 15 | Plant response rating, Wheat, Winter ([1]; Postemergence, 62 g ai/ha): 20 | Plant response rating, Wheat, Winter ([1]; Postemergence, 125 g ai/ha): 30 | Plant response rating, Wheat, Winter ([1]; Preemergence, 16 g ai/ha): 0 | Plant response rating, Wheat, Winter ([1]; Preemergence, 31 g ai/ha): 0 | Plant response rating, Wheat, Winter ([1]; Preemergence, 62 g ai/ha): 5 | Plant response rating, Wheat, Winter ([1]; Preemergence, 125 g ai/ha): 17 | Plant response rating, Oat, Wild (oat, wild (Avena fatua); Postemergence, 16 g ai/ha): 25 | Plant response rating, Oat, Wild (oat, wild (Avena fatua); Postemergence, 31 g ai/ha): 65 | Plant response rating, Oat, Wild (oat, wild (Avena fatua); Postemergence, 62 g ai/ha): 80 | Plant response rating, Oat, Wild (oat, wild (Avena fatua); Postemergence, 125 g ai/ha): 90 | Plant response rating, Oat, Wild (oat, wild (Avena fatua); Preemergence, 16 g ai/ha): 22 | Plant response rating, Oat, Wild (oat, wild (Avena fatua); Preemergence, 31 g ai/ha): 33 | Plant response rating, Oat, Wild (oat, wild (Avena fatua); Preemergence, 62 g ai/ha): 73 | Plant response rating, Oat, Wild (oat, wild (Avena fatua); Preemergence, 125 g ai/ha): 83 | Plant response rating, Barley, Winter ([2]; Postemergence, 16 g ai/ha): 0 | Plant response rating, Barley, Winter ([2]; Postemergence, 31 g ai/ha): 5 | Plant response rating, Barley, Winter ([2]; Postemergence, 62 g ai/ha): 15 | Plant response rating, Barley, Winter ([2]; Postemergence, 125 g ai/ha): 15 | Plant response rating, Barley, Winter ([2]; Preemergence, 16 g ai/ha): 0 | Plant response rating, Barley, Winter ([2]; Preemergence, 31 g ai/ha): 0 | Plant response rating, Barley, Winter ([2]; Preemergence, 62 g ai/ha): 0 | Plant response rating, Barley, Winter ([2]; Preemergence, 125 g ai/ha): 0 | Plant response rating, Barley, Spring ([3]; Postemergence, 16 g ai/ha): 0 | Plant response rating, Barley, Spring ([3]; Postemergence, 31 g ai/ha): 5 | Plant response rating, Barley, Spring ([3]; Postemergence, 62 g ai/ha): 10 | Plant response rating, Barley, Spring ([3]; Postemergence, 125 g ai/ha): 20 | Plant response rating, Barley, Spring ([3]; Preemergence, 16 g ai/ha): 0 | Plant response rating, Barley, Spring ([3]; Preemergence, 31 g ai/ha): 0 | Plant response rating, Barley, Spring ([3]; Preemergence, 62 g ai/ha): 2 | Plant response rating, Barley, Spring ([3]; Preemergence, 125 g ai/ha): 10 | Plant response rating, Oilseed Rape ([4]; Postemergence, 16 g ai/ha): 15 | Plant response rating, Oilseed Rape ([4]; Postemergence, 31 g ai/ha): 15 | Plant response rating, Oilseed Rape ([4]; Postemergence, 62 g ai/ha): 20 | Plant response rating, Oilseed Rape ([4]; Postemergence, 125 g ai/ha): 25 | Plant response rating, Oilseed Rape ([4]; Preemergence, 16 g ai/ha): 0 | Plant response rating, Oilseed Rape ([4]; Preemergence, 31 g ai/ha): 0 | Plant response rating, Oilseed Rape ([4]; Preemergence, 62 g ai/ha): 0 | Plant response rating, Oilseed Rape ([4]; Preemergence, 125 g ai/ha): 0 | Plant response rating, Wheat, Spring ([5]; Postemergence, 16 g ai/ha): 15 | Plant response rating, Wheat, Spring ([5]; Postemergence, 31 g ai/ha): 25 | Plant response rating, Wheat, Spring ([5]; Postemergence, 62 g ai/ha): 35 | Plant response rating, Wheat, Spring ([5]; Postemergence, 125 g ai/ha): 55 | Plant response rating, Wheat, Spring ([5]; Preemergence, 16 g ai/ha): 0 | Plant response rating, Wheat, Spring ([5]; Preemergence, 31 g ai/ha): 12 | Plant response rating, Wheat, Spring ([5]; Preemergence, 62 g ai/ha): 28 | Plant response rating, Wheat, Spring ([5]; Preemergence, 125 g ai/ha): 62 | Plant response rating, Galium ([6]; Postemergence, 16 g ai/ha): 80 | Plant response rating, Galium ([6]; Postemergence, 31 g ai/ha): 90 | Plant response rating, Galium ([6]; Postemergence, 62 g ai/ha): 90 | Plant response rating, Galium ([6]; Postemergence, 125 g ai/ha): 99 | Plant response rating, Galium ([6]; Preemergence, 16 g ai/ha): 78 | Plant response rating, Galium ([6]; Preemergence, 31 g ai/ha): 85 | Plant response rating, Galium ([6]; Preemergence, 62 g ai/ha): 97 | Plant response rating, Galium ([6]; Preemergence, 125 g ai/ha): 100 | Plant response rating (0 to 100 scale) ([7]; Postemergence, 31 g ai/ha): 90 | Plant response rating (0 to 100 scale) ([7]; Postemergence, 125 g ai/ha): 100 | Plant response rating (0 to 100 scale) ([7]; Preemergence, 31 g ai/ha): 90 | Plant response rating (0 to 100 scale) ([7]; Preemergence, 125 g ai/ha): 100 | Plant response rating (0 to 100 scale) (kochia (Kochia scoparia); Postemergence, 31 g ai/ha): 70 | Plant response rating (0 to 100 scale) (kochia (Kochia scoparia); Postemergence, 125 g ai/ha): 90 | Plant response rating (0 to 100 scale) (kochia (Kochia scoparia); Preemergence, 31 g ai/ha): 30 | Plant response rating (0 to 100 scale) (kochia (Kochia scoparia); Preemergence, 125 g ai/ha): 90 | Plant response rating (0 to 100 scale) ([8]; Postemergence, 31 g ai/ha): 90 | Plant response rating (0 to 100 scale) ([8]; Postemergence, 125 g ai/ha): 90 | Plant response rating (0 to 100 scale) ([8]; Preemergence, 31 g ai/ha): 20 | Plant response rating (0 to 100 scale) ([8]; Preemergence, 125 g ai/ha): 90 | Plant response rating (0 to 100 scale) ([9]; Postemergence, 31 g ai/ha): 90 | Plant response rating (0 to 100 scale) ([9]; Postemergence, 125 g ai/ha): 100 | Plant response rating (0 to 100 scale) ([9]; Preemergence, 31 g ai/ha): 100 | Plant response rating (0 to 100 scale) ([9]; Preemergence, 125 g ai/ha): 100 | Plant response rating (0 to 100 scale) ([10]; Postemergence, 31 g ai/ha): 80 | Plant response rating (0 to 100 scale) ([10]; Postemergence, 125 g ai/ha): 100 | Plant response rating (0 to 100 scale) ([10]; Preemergence, 31 g ai/ha): 70 | Plant response rating (0 to 100 scale) ([10]; Preemergence, 125 g ai/ha): 100

Cc1ccc2ccc(Cl)cc2c1-c1c(O)c(Cl)nn(C)c1=O [Cpd. No. 22]
Plant response rating, Wheat, Winter ([1]; Postemergence, 31 g ai/ha): 85 | Plant response rating, Wheat, Winter ([1]; Postemergence, 62 g ai/ha): 95 | Plant response rating, Oat, Wild (oat, wild (Avena fatua); Postemergence, 31 g ai/ha): 93 | Plant response rating, Oat, Wild (oat, wild (Avena fatua); Postemergence, 62 g ai/ha): 98 | Plant response rating, Barley, Winter ([2]; Postemergence, 31 g ai/ha): 47 | Plant response rating, Barley, Winter ([2]; Postemergence, 62 g ai/ha): 73 | Plant response rating, Barley, Spring ([3]; Postemergence, 31 g ai/ha): 67 | Plant response rating, Barley, Spring ([3]; Postemergence, 62 g ai/ha): 85 | Plant response rating, Oilseed Rape ([4]; Postemergence, 31 g ai/ha): 73 | Plant response rating, Oilseed Rape ([4]; Postemergence, 62 g ai/ha): 90 | Plant response rating, Wheat, Spring ([5]; Postemergence, 31 g ai/ha): 90 | Plant response rating, Wheat, Spring ([5]; Postemergence, 62 g ai/ha): 96 | Plant response rating, Galium ([6]; Postemergence, 31 g ai/ha): 92 | Plant response rating, Galium ([6]; Postemergence, 62 g ai/ha): 96 | Plant response rating (0 to 100 scale) ([7]; Postemergence, 31 g ai/ha): 100 | Plant response rating (0 to 100 scale) ([7]; Postemergence, 125 g ai/ha): 100 | Plant response rating (0 to 100 scale) ([7]; Preemergence, 31 g ai/ha): 90 | Plant response rating (0 to 100 scale) ([7]; Preemergence, 125 g ai/ha): 100 | Plant response rating (0 to 100 scale) (kochia (Kochia scoparia); Postemergence, 31 g ai/ha): 60 | Plant response rating (0 to 100 scale) (kochia (Kochia scoparia); Postemergence, 125 g ai/ha): 100 | Plant response rating (0 to 100 scale) (kochia (Kochia scoparia); Preemergence, 31 g ai/ha): 10 | Plant response rating (0 to 100 scale) (kochia (Kochia scoparia); Preemergence, 125 g ai/ha): 90 | Plant response rating (0 to 100 scale) ([8]; Postemergence, 31 g ai/ha): 100 | Plant response rating (0 to 100 scale) ([8]; Postemergence, 125 g ai/ha): 100 | Plant response rating (0 to 100 scale) ([8]; Preemergence, 31 g ai/ha): 100 | Plant response rating (0 to 100 scale) ([8]; Preemergence, 125 g ai/ha): 100 | Plant response rating (0 to 100 scale) ([9]; Postemergence, 31 g ai/ha): 100 | Plant response rating (0 to 100 scale) ([9]; Postemergence, 125 g ai/ha): 100 | Plant response rating (0 to 100 scale) ([9]; Preemergence, 31 g ai/ha): 100 | Plant response rating (0 to 100 scale) ([9]; Preemergence, 125 g ai/ha): 100 | Plant response rating (0 to 100 scale) ([10]; Postemergence, 31 g ai/ha): 100 | Plant response rating (0 to 100 scale) ([10]; Postemergence, 125 g ai/ha): 100 | Plant response rating (0 to 100 scale) ([10]; Preemergence, 31 g ai/ha): 100 | Plant response rating (0 to 100 scale) ([10]; Preemergence, 125 g ai/ha): 100
